The target in one experiment is T1, human CYP3A4 (Homo sapiens, UniProt P08684).
T1 construct: purchased Daiichikagakuyakuhin
The experiment is described as follows: Inhibitory activity against human CYP3A4 (7-benzyloxyquinoline substrate, expression system microsome). The format is in vitro ADME. Conditions: substrate 7-BQ 40 μM, expression system microsome 0.25 mg/mL, 30 minutes incubation, fluorescence. As to the method: Inhibitory activity against human CYP3A4 of the compound of the present invention can be evaluated by an improved method described in Drug Metabolism and Disposition, Vol. 28(12), 1440-1448 (2000).
For example, a reaction solution consisted of potassium phosphate buffer (pH 7.4) (final concentration: 200 mM), magnesium chloride hexahydrate (final concentration: 5 mM), substrate (7-benzyloxyquinoline (7-BQ), final concentration: 40 μM), and expression system microsome (Daiichikagakuyakuhin, final concentration: 0.25 mg/mL) was prepared. 100 μL of the reaction solution is dispensed in 96 well plate, and added by 50 μL of an aqueous solution containing test a compound and 0.8% acetonitrile, to carry out 10 minutes of preincubation at 37° C. 50 μL of a reduced nicotinamide adenine dinucleotide phosphate (NADPH, 4 mM) is added to initiate a reaction. The fluorescence intensity of each well was measured at the time when NADPH was added and after incubated for 30 minutes. Excitation wavelength at 409 nm and emission wavelength at 530 nm of quinolinol, which is metabolite of substrate, was measured. Inhibition ratio (%) of the test compound was calculated by the following calculation formula to obtain IC50 value. Inhibition ratio(%)=[1−{(measured value when a test compound is added)−(blank value)/(control value−blank value)}]×100

The target in the next experiment is human CCR5 (Homo sapiens, UniProt P51681). As to the kind of experiment: CCR5 binding test ([125I]MIP-1β binding inhibition). As to conditions: inhibition of [125I]MIP-1β (0.1 nM) binding to membrane fraction of human CCR5 stably over-expressing CHO-K1 cell, 25° C., 120 minutes. As to the method:
A membrane fraction of the human CCR5 stably over-expressing CHO-K1 cell was suspended in assay buffer (50 mM HEPES/0.5% BSA/1 mM calcium chloride/5 mM magnesium chloride, pH 7.4) and dispensed in a 48 well polypropylene plate with U-shaped bottom in the amount corresponding to 1 μg of protein/well. Then, an unlabelled ligand was added so as to obtain a concentration of 0.1 μM in a non-specific binding group, while a compound was added so as to obtain a final concentration of 0.003 to 0.3 μM in a compound group. Subsequently, [^125I]MIP-1β was added so as to obtain a final concentration of 0.1 nM and a mixture thereof was incubated at 25° C. for 120 minutes. The membrane fraction was trapped with a filter, washed, and then radioactivity of [^125I]MIP-1β was measured by a γ counter.
Inhibition ratio (%) of the test compound was calculated by the following calculation formula. Inhibition ratio=[(Ec−Ea)/Ec]×100 • Ec: Radioactivity of when DMSO control solution is added−radioactivity of non-specific binding group • Ea: Radioactivity of when test compound is added−radioactivity of non-specific binding group

T1 sequence (P08684 whole entry): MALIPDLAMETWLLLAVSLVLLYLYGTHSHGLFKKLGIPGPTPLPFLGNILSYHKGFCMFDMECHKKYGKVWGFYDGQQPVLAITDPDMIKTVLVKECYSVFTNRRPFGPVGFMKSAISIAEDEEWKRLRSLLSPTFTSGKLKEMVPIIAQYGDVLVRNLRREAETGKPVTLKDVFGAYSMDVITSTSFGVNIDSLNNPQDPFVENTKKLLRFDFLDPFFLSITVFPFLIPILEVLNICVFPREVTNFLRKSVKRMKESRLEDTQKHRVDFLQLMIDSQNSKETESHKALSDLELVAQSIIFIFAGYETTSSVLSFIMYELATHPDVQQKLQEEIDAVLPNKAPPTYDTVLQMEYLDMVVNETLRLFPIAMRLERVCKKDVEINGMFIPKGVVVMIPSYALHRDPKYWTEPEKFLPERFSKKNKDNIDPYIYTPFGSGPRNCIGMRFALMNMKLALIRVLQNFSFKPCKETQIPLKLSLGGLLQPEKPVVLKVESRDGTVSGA
Chain of human CCR5 (P51681 whole entry): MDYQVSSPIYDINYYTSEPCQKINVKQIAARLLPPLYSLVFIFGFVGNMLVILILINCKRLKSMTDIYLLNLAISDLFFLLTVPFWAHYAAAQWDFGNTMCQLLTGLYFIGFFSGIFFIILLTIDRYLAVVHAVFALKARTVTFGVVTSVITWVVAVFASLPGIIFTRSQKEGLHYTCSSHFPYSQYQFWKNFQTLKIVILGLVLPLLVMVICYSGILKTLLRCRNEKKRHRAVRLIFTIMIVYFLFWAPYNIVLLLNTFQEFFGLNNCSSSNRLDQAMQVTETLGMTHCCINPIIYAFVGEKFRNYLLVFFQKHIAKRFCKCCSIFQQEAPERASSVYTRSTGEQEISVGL

With `CCCCN(C(=O)Nc1cc(C(N)=O)c(F)cc1F)C1CCN(Cc2ccc(Oc3ccc(C(=O)N4CCN(C(C)=O)CC4)cc3)nc2C)CC1` [Example 16(60), 5-{[{1-[(6-{4-[(4-acetyl-1-piperazinyl)carbonyl]phenoxy}-2-methyl-3-pyridinyl)methyl]-4-piperidinyl}(butyl)carbamoyl]amino}-2,4-difluorobenzamide], at human CYP3A4, the IC50 is not below 30 µM.

With `CCCCN(C(=O)Nc1cc(C(N)=O)c(F)cc1F)C1CCN(Cc2ccc(Oc3ccc(C(=O)N(C)C)cc3)nc2C)CC1` [Example 16(61), 5-({butyl[1-({6-[4-(dimethylcarbamoyl)phenoxy]-2-methyl-3-pyridinyl}methyl)-4-piperidinyl]carbamoyl}amino)-2,4-difluorobenzamide], the half-inhibitory concentration (IC50) was not below 30 µM against human CYP3A4 and not above 0.1 µM at human CCR5.

With `CCCCN(C(=O)Nc1cc(C(N)=O)c(F)cc1F)C1CCN(Cc2ccc(Oc3ccc(C(=O)NCC)cc3)nc2C)CC1` [Example 16(62), 5-({butyl[1-({6-[4-(ethylcarbamoyl)phenoxy]-2-methyl-3-pyridinyl}methyl)-4-piperidinyl]carbamoyl}amino)-2,4-difluorobenzamide], the IC50 at human CCR5 was not above 0.1 µM.

The molecule `CCCCN(C(=O)Nc1cc(C(N)=O)c(F)cc1F)C1CCN(Cc2ccc(Oc3ccc(C(=O)N4CCN(C)CC4)cc3)nc2C)CC1` [Example 16(63), 5-[(butyl {1-[(2-methyl-6-{4-[(4-methyl-1-piperazinyl)carbonyl]phenoxy}-3-pyridinyl)methyl]-4-piperidinyl}carbamoyl)amino]-2,4-difluorobenzamide] came in with an IC50 on human CYP3A4 not below 30 µM.

For the origin of these results see patent US8003642B2, “Nitrogenated heterocyclic derivative, and pharmaceutical agent comprising the derivative as active ingredient” (Ono Pharmaceutical Co., Ltd., priority 2006, dated 2011).
